Data as given in ChEMBL document CHEMBL1153630, “Structure-activity relationship (SAR) of parthenin analogues with pro-apoptotic activity: Development of novel anti-cancer leads” (Bioorg Med Chem Lett, 2009).
Activity calls are given as the source filed them. No cut-off for these calls is given here.

Tests used:
HL-60 [1] = test: Induction of apoptosis in human HL60 cells assessed as DNA population at sub G0/G1 phase at 10 uM after 6 hrs by flow cytometry; format: functional
HL-60 [2] = test: Cytotoxicity against human HL60 cells after 48 hrs by MTT assay; format: functional, cell-based; conditions: HL-60, 48 h
HeLa = test: Cytotoxicity against human HeLa cells after 48 hrs by MTT assay; format: functional, cell-based
[3] = molecular target: DNA topoisomerase 2-alpha (Homo sapiens) (UniProt P11388); test: Inhibition of human topoisomerase 2-mediated relaxation of supercoiled plasmid DNA at 10 uM after 1 hr by electrophoresis analysis
[4] = molecular target: DNA topoisomerase 2-alpha (Homo sapiens) (UniProt P11388); test: Inhibition of human topoisomerase 2-mediated relaxation of supercoiled plasmid DNA at 100 uM after 1 hr by electrophoresis analysis
HL-60 [5] = test: Inhibition of telomerase expression in human HL60 cells at 10 uM after 6 hrs by Western blot analysis; format: functional; conditions: HL-60, 6 h

Chain of DNA topoisomerase 2-alpha (Homo sapiens) (P11388 whole entry): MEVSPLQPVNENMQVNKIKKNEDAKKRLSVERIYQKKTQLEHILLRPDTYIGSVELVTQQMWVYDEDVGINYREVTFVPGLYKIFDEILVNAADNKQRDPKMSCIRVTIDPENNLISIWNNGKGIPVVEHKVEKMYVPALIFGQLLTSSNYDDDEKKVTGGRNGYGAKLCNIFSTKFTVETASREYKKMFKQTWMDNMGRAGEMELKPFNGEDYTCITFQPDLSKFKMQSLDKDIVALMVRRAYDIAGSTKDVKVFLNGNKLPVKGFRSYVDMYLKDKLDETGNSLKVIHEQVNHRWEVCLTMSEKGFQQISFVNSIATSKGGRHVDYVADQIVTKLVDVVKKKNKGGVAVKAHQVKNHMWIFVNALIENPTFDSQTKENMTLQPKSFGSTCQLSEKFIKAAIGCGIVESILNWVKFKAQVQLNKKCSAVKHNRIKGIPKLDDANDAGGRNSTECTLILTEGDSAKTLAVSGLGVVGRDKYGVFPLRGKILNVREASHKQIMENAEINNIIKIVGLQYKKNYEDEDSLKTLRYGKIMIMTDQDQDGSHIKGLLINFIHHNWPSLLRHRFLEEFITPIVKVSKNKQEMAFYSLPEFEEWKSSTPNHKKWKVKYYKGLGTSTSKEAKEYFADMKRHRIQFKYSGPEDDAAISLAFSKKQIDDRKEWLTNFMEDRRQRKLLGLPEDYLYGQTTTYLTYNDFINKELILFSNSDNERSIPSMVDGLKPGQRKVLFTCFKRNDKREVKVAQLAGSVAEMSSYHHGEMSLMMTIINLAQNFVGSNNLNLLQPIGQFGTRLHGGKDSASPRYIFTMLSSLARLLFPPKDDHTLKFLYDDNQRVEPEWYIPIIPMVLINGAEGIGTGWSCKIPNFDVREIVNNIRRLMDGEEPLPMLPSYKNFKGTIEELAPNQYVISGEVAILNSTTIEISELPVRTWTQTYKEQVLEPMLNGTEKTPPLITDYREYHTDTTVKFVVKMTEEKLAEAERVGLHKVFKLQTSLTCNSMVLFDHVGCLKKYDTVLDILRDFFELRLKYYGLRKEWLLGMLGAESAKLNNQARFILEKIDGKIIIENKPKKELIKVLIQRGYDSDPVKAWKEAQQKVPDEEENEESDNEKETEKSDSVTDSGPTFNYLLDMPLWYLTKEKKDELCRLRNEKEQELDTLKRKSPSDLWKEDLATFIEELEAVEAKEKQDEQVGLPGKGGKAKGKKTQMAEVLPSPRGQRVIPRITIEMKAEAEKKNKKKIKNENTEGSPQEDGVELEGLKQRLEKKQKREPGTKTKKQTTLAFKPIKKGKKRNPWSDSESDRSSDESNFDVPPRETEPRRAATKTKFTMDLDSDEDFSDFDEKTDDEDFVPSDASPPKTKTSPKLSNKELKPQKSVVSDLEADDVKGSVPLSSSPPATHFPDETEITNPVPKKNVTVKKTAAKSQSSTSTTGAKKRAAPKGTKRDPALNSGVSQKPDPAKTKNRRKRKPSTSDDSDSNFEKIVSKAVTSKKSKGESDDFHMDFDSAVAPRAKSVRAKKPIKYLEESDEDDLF

inhibition [3]	inhibition [4]	Compound	Activity (HL-60 [1]) [%]	IC50 (HL-60 [2]) [µM]	IC50 (HeLa) [µM]	inhibition at 10 µM (HL-60 [5]) [%]
		C=C1C(=O)O[C@@H]2[C@H]1CC[C@H](C)[C@]1(O)C=C(/C=C/CCCCC)C(=O)[C@@]21C	6.78	24	47	
		C=C1C(=O)O[C@@H]2[C@H]1CC[C@H](C)[C@]1(O)[C@H](OCCO)CC(=O)[C@@]21C	1.81	44	72	
		C=C1C(=O)O[C@@H]2[C@H]1CC[C@H](C)[C@]1(O)[C@H](O)CC(=O)[C@@]21C	1.17	50	68	
		C[C@H]1CC[C@H]2[C@H](COCCO)C(=O)O[C@H]2[C@]2(C)C(=O)C=C[C@@]12O	2.05	44	76	
		C=C1C(=O)O[C@@H]2[C@H]1CC[C@H](C)[C@]1(O)C=C(C(O)/C=C/c3ccccc3)C(=O)[C@@]21C (some centres undefined)	2.44	46	78	
		C=C1C(=O)O[C@@H]2[C@H]1CC[C@H](C)[C@]13OC(c4ccc(OC)cc4)O[C@H]1/C(=C/c1ccc(OC)cc1)C(=O)[C@@]23C (some centres undefined)	2.17	46	72	
		C=C1C(=O)O[C@@H]2[C@H]1CC[C@H](C)[C@]1(O)[C@H](OCC)CC(=O)[C@@]21C	4.51	60	76	
		C=C1C(=O)O[C@@H]2[C@H]1CC[C@H](C)[C@]1(O)C=C(C(O)c3ccc(Cl)cc3)C(=O)[C@@]21C (some centres undefined)	2.76	17	70	
		C=C1C(=O)O[C@@H]2[C@H]1CCC(C)=C1C=CC(=O)[C@]12C	2.95	16	74	
		CC1C(=O)O[C@@H]2[C@H]1CC[C@H](C)[C@]1(O)C=CC(O)[C@@]21C (some centres undefined)	1.43	48	64	
		CC(=O)OC1C=C[C@@]2(O)[C@@H](C)CC[C@H]3C(C)C(=O)O[C@H]3[C@]12C (some centres undefined)	0.82	48	74	
		C=C1C(=O)O[C@@H]2[C@H]1CC[C@H](C)[C@]13OC(/C=C/c4ccccc4)O[C@H]1/C(=C/C=C/c1ccccc1)C(=O)[C@@]23C (some centres undefined)	82.97	7	25	
		C[C@H]1CC[C@@H]2[C@@H](OC(=O)C2(O)CBr)[C@]2(C)C(=O)C=C[C@@]12O (some centres undefined)	3.25	12	64	
		C[C@H]1CC[C@H]2[C@H](COCCO)C(=O)O[C@H]2[C@]2(C)C(=O)C[C@@H](OCCO)[C@@]12O	2.19	55	72	
		C=C1C(=O)O[C@@H]2[C@H]1CC[C@H](C)[C@]1(O)C=CC(=O)[C@@]21C [PARTHENIN]	13.69	17	60	
		C=C1C(=O)O[C@@H]2[C@H]1CC[C@H](C)[C@]1(O)C=C(C(O)c3ccccc3)C(=O)[C@@]21C (some centres undefined)	13.89	9	58	
		C=C1C(=O)O[C@@H]2[C@H]1CC[C@H](C)[C@]13OC(Cc4ccco4)O[C@H]1/C(=C/Cc1ccco1)C(=O)[C@@]23C (some centres undefined)	42.38	5	68	
		C=C1C(=O)O[C@@H]2[C@H]1CC[C@H](C)[C@]1(O)C=C(/C=C/CC)C(=O)[C@@]21C	1.6	45	73	
		C=C1C(=O)O[C@@H]2[C@H]1CC[C@H](C)[C@]13OC(c4ccc5c(c4)OCO5)O[C@H]1/C(=C/c1ccc4c(c1)OCO4)C(=O)[C@@]23C (some centres undefined)	58.75	5	57	

inhibition [3]	inhibition [4]	Compound	Activity (HL-60 [1]) [%]	IC50 (HL-60 [2]) [µM]	IC50 (HeLa) [µM]	inhibition at 10 µM (HL-60 [5]) [%]
		C=C1C(=O)O[C@@H]2[C@H]1CC[C@H](C)[C@]13OC(c4ccccc4)O[C@H]1/C(=C/c1ccccc1)C(=O)[C@@]23C (some centres undefined)	69.28	6	31	
		C[C@H]1CC[C@@H]2[C@@H](OC(=O)C2(Br)CBr)[C@]2(C)C(=O)C(Br)=C[C@@]12O (some centres undefined)	2.17	13	76	
		C=C1C(=O)O[C@@H]2[C@H]1CC[C@H](C)[C@]13OC(CC)O[C@H]1CC(=O)[C@@]23C (some centres undefined)	2.71	38	65	
		C=C1C(=O)O[C@@H]2[C@H]1CC[C@H](C)[C@]1(O)C=CC(=O)O[C@@]21C	2.98	18	67	
		C=C1C(=O)O[C@@H]2[C@H]1CC[C@H](C)[C@]13OCO[C@H]1CC(=O)[C@@]23C	2.86	49	65	
		C=C1C(=O)O[C@@H]2[C@H]1CC[C@H](C)[C@]1(O)[C@H](OC)CC(=O)[C@@]21C	1.95	32	68	
		C=C1C(=O)O[C@@H]2[C@H]1CC[C@H](C)[C@]13OCO[C@H]1C(CO)(CO)C(=O)[C@@]23C	2.61	17	70	
		C=C1C(=O)O[C@@H]2[C@H]1CC[C@H](C)[C@]1(O)[C@@H](O)/C(=C/c3ccc(Cl)cc3)C(=O)[C@@]21C	19.38	9	44	
		C=C1C(=O)O[C@@H]2[C@H]1CC[C@H](C)[C@]13OC(c4ccc(OC)c(OC)c4)O[C@H]1/C(=C/c1ccc(OC)c(OC)c1)C(=O)[C@@]23C (some centres undefined)	81.38	6	32	
		C=C1C(=O)O[C@@H]2[C@H]1CC[C@H](C)[C@]1(O)C=C(CO)C(=O)[C@@]21C	3.01	16	65	
		C=C1C(=O)O[C@@H]2[C@H]1CC[C@H](C)[C@]1(O)[C@H](OCCC)CC(=O)[C@@]21C	3.21	18	74	
Active	Active	C=C1C(=O)O[C@@H]2[C@H]1CC[C@H](C)[C@]13OC(c4ccc(Cl)cc4)O[C@H]1/C(=C/c1ccc(Cl)cc1)C(=O)[C@@]23C (some centres undefined)	94.1	3	12	80
		C[C@H]1CC[C@@H]2[C@@H](OC(=O)C2(Br)CBr)[C@]2(C)C(=O)C=C[C@@]12O (some centres undefined)	1.93	12	67	
		C[C@H]1CC[C@@H]2[C@@H](OC(=O)C2(Br)CBr)[C@]2(C)C(=O)C(Br)C(Br)[C@@]12O (some centres undefined)	18.33	8	61	
		C=C1C(=O)O[C@@H]2[C@H]1CC[C@H](C)[C@]1(O)C=C(C(O)c3ccc4c(c3)OCO4)C(=O)[C@@]21C (some centres undefined)	2.13	18	73	
		C=C1C(=O)O[C@@H]2[C@H]1CC[C@H](C)[C@]1(O)C=C(/C=C/CCC)C(=O)[C@@]21C	2.33	42	68	
		C=C1C(=O)O[C@@H]2[C@H]1CC[C@H](C)[C@]13OC(C)O[C@H]1CC(=O)[C@@]23C (some centres undefined)	1.9	41	70	
		C=C1C(=O)O[C@@H]2[C@H]1CC[C@H](C)[C@]1(O)[C@H](OCCCC)CC(=O)[C@@]21C	1.9	42	70	
